In patent US20210395694A1, “METHOD FOR PROMOTING PRODUCTION OF EXOSOMES AND/OR EXTRACELLULAR VESICLES” (ExoCoBio Inc., priority 2019, published 2021):

How the values were obtained:
[1] = tested on: Human adipose-derived stem cells; assay: Nanoparticle tracking analysis (NTA) of exosomes isolated from conditioned medium of stem cells cultured with ascorbic acid; assay type: cell-based
Experimental: Human adipose-derived stem cells were suspended in a-MEM culture medium containing 10% fetal bovine serum (FBS), 100 units/mL penicillin and 100 μg/mL streptomycin, and then seeded into a 6-well plate at a density of 6,000 cells/cm^2 and cultured in an incubator at 37° C. under 5% CO2. For ascorbic acid-treated groups, 24 hours after seeding, ascorbic acid was added to the culture medium at a concentration of 10 μg/mL, 30 μg/mL and 100 μg/mL, respectively. In all of the ascorbic acid-treated groups and the untreated group, when the adipose-derived stem cells reached a confluency of 80% or more, the culture medium was replaced with α-MEM medium containing 100 units/mL penicillin and 100 μg/mL streptomycin (hereinafter referred to as “serum-free medium” or “SFM”), or α-MEM medium containing 2% FBS from which FBS-derived exosomes and extracellular vesicles have been removed, 100 units/mL penicillin and 100 μg/mL streptomycin (hereinafter referred to as “extracellular vesicles-depleted medium” or “EDM”). […] After completion of recovery of the conditioned medium, the cells were counted using a cell counter. […] The particle size and concentration of the isolated exosomes were measured by nanoparticle tracking analysis (NTA) instrument (purchased from Malvern).

[2] = tested on: Human adipose-derived stem cells; assay: Exosome CD63 content by flow cytometry (PE MFI against a human CD63 standard curve); assay type: cell-based; conditions: CD63 content per mL; compared to the untreated control group; FIG. 3
Experimental: Human adipose-derived stem cells were suspended in a-MEM culture medium containing 10% fetal bovine serum (FBS), 100 units/mL penicillin and 100 μg/mL streptomycin, and then seeded into a 6-well plate at a density of 6,000 cells/cm^2 and cultured in an incubator at 37° C. under 5% CO2. For ascorbic acid-treated groups, 24 hours after seeding, ascorbic acid was added to the culture medium at a concentration of 10 μg/mL, 30 μg/mL and 100 μg/mL, respectively.
In all of the ascorbic acid-treated groups and the untreated group, when the adipose-derived stem cells reached a confluency of 80% or more, the culture medium was replaced with α-MEM medium containing 100 units/mL penicillin and 100 μg/mL streptomycin (hereinafter referred to as “serum-free medium” or “SFM”), or α-MEM medium containing 2% FBS from which FBS-derived exosomes and extracellular vesicles have been removed, 100 units/mL penicillin and 100 μg/mL streptomycin (hereinafter referred to as “extracellular vesicles-depleted medium” or “EDM”). In the ascorbic acid-treated groups, ascorbic acid was added to each of the serum-free medium and the extracellular vesicles-depleted medium at a concentration of 10 μg/mL, 30 μg/mL and 100 μg/mL, respectively. […] After completion of recovery of the conditioned medium, the cells were counted using a cell counter. […]

## O=C1O[C@H]([C@@H](O)CO)C(O)=C1O [ascorbic acid]
[1]; compared with the control group not treated with ascorbic acid, FIG. 2
  productivity (i.e., the number of exosome particles per mL): increased by approximately four times or more
[1]; stem cells pre-treated and cultured in medium containing ascorbic acid vs medium not containing ascorbic acid, FIG. 1 (0, 30, 100 μg/mL)
  particle size distribution of the exosomes: more uniform particle size distribution
[2]
  content of the exosomes (i.e., the content of CD63): remarkably increased
